Measured values published in US8722578B2, “Spiroheterocyclic pyrrolidinedione herbicidal compositions” (Syngenta Participations AG, priority 2008, dated 2014).

Assays:
[1] = system: Alopecurus myosuroides (ALOMY); test: Example B pre-emergence herbicidal activity, glasshouse pot test; format: in vivo; conditions: 312 h, first table (headed Post-Emergence, taken as pre-emergence), evaluated after 13 days, read-out: ALOMY activity (100=total damage to plant; 0=no damage to plant); for pest or weed control at 1000 g/ha: rate 1000 g/ha; for pest or weed control at 250 g/ha: rate 250 g/ha
Experimental: (§1) Seeds of a variety of test species are sown in standard soil in pots. After cultivation for one day (pre-emergence) or after 8 days cultivation (post-emergence) under controlled conditions in a glasshouse (at 24/16° C., day/night; 14 hours light; 65% humidity), the plants are sprayed with an aqueous spray solution derived from the formulation of the technical active ingredient in acetone/water (50:50) solution containing 0.5% Tween 20 (polyoxyethelyene sorbitan monolaurate, CAS RN 9005-64-5). The test plants are then grown in a glasshouse under controlled conditions in a glasshouse (at 24/16° C., day/night; 14 hours light; 65% humidity) and watered twice daily. After 13 days for pre and post-emergence, the test is evaluated (100=total damage to plant; 0=no damage to plant). Test Plants: Setaria faberi (SETFA), Alopecurus myosuroides (ALOMY), Echinochloa crus-galli (ECHCG), Avena fatua (AVEFA)

Avena fatua (AVEFA) [2] = test: as above; format: in vivo; conditions: 312 h, first table (headed Post-Emergence, taken as pre-emergence), evaluated after 13 days, read-out: AVEFA activity (100=total damage to plant; 0=no damage to plant); for pest or weed control at 1000 g/ha: rate 1000 g/ha; for pest or weed control at 250 g/ha: rate 250 g/ha
Experimental: as §1

[3] = system: Echinochloa crus-galli (ECHCG); test: as above; format: in vivo; conditions: 312 h, first table (headed Post-Emergence, taken as pre-emergence), evaluated after 13 days, read-out: ECHCG activity (100=total damage to plant; 0=no damage to plant); for pest or weed control at 1000 g/ha: rate 1000 g/ha; for pest or weed control at 250 g/ha: rate 250 g/ha
Experimental: as §1

Setaria faberi (SETFA) [4] = test: as above; format: in vivo; conditions: 312 h, first table (headed Post-Emergence, taken as pre-emergence), evaluated after 13 days, read-out: SETFA activity (100=total damage to plant; 0=no damage to plant); for pest or weed control at 1000 g/ha: rate 1000 g/ha; for pest or weed control at 250 g/ha: rate 250 g/ha
Experimental: as §1

[5] = system: Alopecurus myosuroides (ALOMY); test: Example B post-emergence herbicidal activity, glasshouse pot test; format: in vivo; conditions: 312 h, evaluated after 13 days, read-out: ALOMY post-emergence activity (100=total damage to plant; 0=no damage to plant); for pest or weed control at 1000 g/ha: rate 1000 g/ha; for pest or weed control at 250 g/ha: rate 250 g/ha
Experimental: as §1

Avena fatua (AVEFA) [6] = test: as above; format: in vivo; conditions: 312 h, evaluated after 13 days, read-out: AVEFA post-emergence activity (100=total damage to plant; 0=no damage to plant); for pest or weed control at 1000 g/ha: rate 1000 g/ha; for pest or weed control at 250 g/ha: rate 250 g/ha
Experimental: as §1

[7] = system: Echinochloa crus-galli (ECHCG); test: as above; format: in vivo; conditions: 312 h, evaluated after 13 days, read-out: ECHCG post-emergence activity (100=total damage to plant; 0=no damage to plant); for pest or weed control at 1000 g/ha: rate 1000 g/ha; for pest or weed control at 250 g/ha: rate 250 g/ha
Experimental: as §1

Setaria faberi (SETFA) [8] = test: as above; format: in vivo; conditions: 312 h, evaluated after 13 days, read-out: SETFA post-emergence activity (100=total damage to plant; 0=no damage to plant); for pest or weed control at 1000 g/ha: rate 1000 g/ha; for pest or weed control at 250 g/ha: rate 250 g/ha
Experimental: as §1

SMILES | melting point [°C] | pest or weed control at 1000 g/ha [1] [%] | pest or weed control at 1000 g/ha (Avena fatua (AVEFA) [2]) [%] | pest or weed control at 1000 g/ha [3] [%] | pest or weed control at 1000 g/ha (Setaria faberi (SETFA) [4]) [%] | pest or weed control at 1000 g/ha [5] [%] | pest or weed control at 1000 g/ha (Avena fatua (AVEFA) [6]) [%] | pest or weed control at 1000 g/ha [7] [%] | pest or weed control at 1000 g/ha (Setaria faberi (SETFA) [8]) [%] | pest or weed control at 250 g/ha [1] [%] | pest or weed control at 250 g/ha (Avena fatua (AVEFA) [2]) [%] | pest or weed control at 250 g/ha [3] [%] | pest or weed control at 250 g/ha (Setaria faberi (SETFA) [4]) [%] | pest or weed control at 250 g/ha [5] [%] | pest or weed control at 250 g/ha (Avena fatua (AVEFA) [6]) [%] | pest or weed control at 250 g/ha [7] [%] | pest or weed control at 250 g/ha (Setaria faberi (SETFA) [8]) [%]
CCOC(=O)OC1=C(c2ccc(Br)cc2Cl)C(=O)NC12CCN(OC)CC2 [Compound P66] | 199 to 201 | – | – | – | – | – | – | – | – | 30 | 10 | 0 | 10 | 90 | 70 | 100 | 90
C=CCOC(=O)OC1=C(c2c(Cl)cccc2Cl)C(=O)NC12CCN(OC)CC2 [Compound P44] | 203 to 205 | 20 | 10 | 30 | 30 | 50 | 0 | 0 | 50 | – | – | – | – | – | – | – | –
CON1CCC2(CC1)NC(=O)C(c1ccc(Cl)cc1Cl)=C2OC(=O)N(C)CCC#N [Compound P39] | 171 to 172 | 0 | 0 | 30 | 60 | 10 | 0 | 40 | 50 | – | – | – | – | – | – | – | –
CCOC(=O)OC1=C(c2c(C)cc(Br)cc2C)C(=O)NC12CCN(OC)CC2 [Compound P49] | 185 to 187 | 80 | 80 | 70 | 80 | 90 | 80 | 80 | 80 | – | – | – | – | – | – | – | –
CON1CCC2(CC1)NC(=O)C(c1ccc(Br)cc1C)=C2OC(=O)C(C)(C)C [Compound P69] | 239 to 240 | – | – | – | – | – | – | – | – | 40 | 30 | 90 | 100 | 90 | 60 | 90 | 90
CON1CCC2(CC1)NC(=O)C(c1cc(C)ccc1C)=C2OC(=O)C(C)C [Compound P34] | 201 to 203 | 30 | 40 | 20 | 20 | 10 | 0 | 40 | 60 | – | – | – | – | – | – | – | –
CCON1CCC2(CC1)NC(=O)C(c1c(C)cc(C)cc1C)=C2OC(=O)C(C)(C)C [Compound P25, 2,2-dimethyl-propionic acid 8-ethoxy-2-oxo-3-(2,4,6-trimethyl-phenyl)-1,8-diaza-spiro[4.5]dec-3-en-4-yl ester] | – | 60 | 0 | 80 | 60 | 50 | 0 | 40 | 0 | – | – | – | – | – | – | – | –
CCOC(=O)OC1=C(c2c(C)cc(C)cc2C)C(=O)NC12CCN(OCC)CC2 [Compound P22] | 174 to 175 | 90 | 90 | 100 | 90 | 90 | 60 | 100 | 70 | – | – | – | – | – | – | – | –
C=CCOC(=O)OC1=C(c2c(C)cc(Br)cc2C)C(=O)NC12CCN(OC)CC2 [Compound P48] | 207 to 211 | 100 | 80 | 80 | 90 | 80 | 10 | 80 | 80 | – | – | – | – | – | – | – | –
CCON1CCC2(CC1)NC(=O)C(c1c(C)cc(C)cc1C)C2=O (stereo not drawn) [Compound T5] | – | 100 | 90 | 100 | 90 | 90 | 60 | 100 | 90 | – | – | – | – | – | – | – | –
CON1CCC2(CC1)NC(=O)C(c1c(C)cc(C)cc1C)C2=O (stereo not drawn) [Compound T4] | – | 90 | 100 | 100 | 90 | 100 | 90 | 100 | 100 | – | – | – | – | – | – | – | –
CON1CCC2(CC1)NC(=O)C(c1cc(C3CC3)c(C)cc1C)=C2OC(=O)C(C)(C)C [Compound P56] | 218 to 219 | – | – | – | – | – | – | – | – | – | – | – | – | 20 | 40 | 50 | 60
CCOC(=O)OC1=C(c2ccc(Br)cc2C)C(=O)NC12CCN(OC)CC2 [Compound P68] | 201 to 203 | – | – | – | – | – | – | – | – | – | – | – | – | 70 | 60 | 90 | 90
COc1ccc(COC2=C(c3ccc(Cl)cc3Cl)C(=O)NC23CCN(OC)CC3)cc1 [Compound P32] | 111 to 113 | – | – | – | – | 70 | 60 | 80 | 90 | – | – | – | – | – | – | – | –

Second part, led by results:

melting point [°C] | SMILES | pest or weed control at 1000 g/ha [1] [%] | pest or weed control at 1000 g/ha (Avena fatua (AVEFA) [2]) [%] | pest or weed control at 1000 g/ha [3] [%] | pest or weed control at 1000 g/ha (Setaria faberi (SETFA) [4]) [%] | pest or weed control at 1000 g/ha [5] [%] | pest or weed control at 1000 g/ha (Avena fatua (AVEFA) [6]) [%] | pest or weed control at 1000 g/ha [7] [%] | pest or weed control at 1000 g/ha (Setaria faberi (SETFA) [8]) [%] | pest or weed control at 250 g/ha [1] [%] | pest or weed control at 250 g/ha (Avena fatua (AVEFA) [2]) [%] | pest or weed control at 250 g/ha [3] [%] | pest or weed control at 250 g/ha (Setaria faberi (SETFA) [4]) [%] | pest or weed control at 250 g/ha [5] [%] | pest or weed control at 250 g/ha (Avena fatua (AVEFA) [6]) [%] | pest or weed control at 250 g/ha [7] [%] | pest or weed control at 250 g/ha (Setaria faberi (SETFA) [8]) [%]
221 to 223 | CON1CCC2(CC1)NC(=O)C(c1ccc(Cl)cc1Cl)C2=O (stereo not drawn) [Compound T2] | 60 | 40 | 0 | 30 | 100 | 90 | 100 | 100 | – | – | – | – | – | – | – | –
260 to 264 | CON1CCC2(CC1)NC(=O)C(c1c(C)cc(Br)cc1C)C2=O (stereo not drawn) [Compound T12] | 70 | 80 | 20 | 90 | 80 | 90 | 80 | 90 | – | – | – | – | – | – | – | –
257 to 260 | CON1CCC2(CC1)NC(=O)C(c1c(Cl)cccc1Cl)C2=O (stereo not drawn) [Compound T3] | 40 | 0 | 0 | 80 | 60 | 0 | 0 | 70 | – | – | – | – | – | – | – | –
